From patent publication US20100273750A1, “SEROTONIN RECEPTOR ANTAGONISTS FOR TREATING ARTHRITIS” (IMPERIAL INNOVATIONS LIMITED, priority 2007, published 2010)
“Also recorded” adds a separate entry of the source. Structures can show the parent of a compound that is named as a salt.

Assays:
[1] = test system: RA synovial membrane cultures; test: Spontaneous cytokine release from RA synovial membrane cultures (ELISA); assay type: cell-based, human
Procedure: Macrophages or RA synovial membrane cell cultures were stimulated with 10 ng/ml chloroform-extracted LPS, 10 ng/ml Pam3, 10 ng/ml Flagellin, 10 ng/ml Malp-2, 20 μg/ml poly IC, 2 μM CpG (human/mouse) or 1 μg/ml R-848 in complete media for 6 h. Supernatants from RA cultures were harvested after 24 hours.
(§1) Sandwich ELISAs were employed to measure TNF, (Pharmingen, UK). IP-10 (R&D, USA) and IL-1β (Bioscource. USA). Absorbance was read on a spectrophotometric ELISA plate reader (Labsystems Multiscan Biochromic) and analyzed using Ascent software V2.6 (Thermo Labsystems, Cambridge, United Kingdom). All results are expressed as the mean cytokine concentration±SD obtained from triplicate cultures per condition.
(§2) RA synovial membrane cells were isolated from patients undergoing joint replacement surgery as previously described (Foxwell et al., Proc. Natl. Acad. Sci. USA 95, 8211-8215, 1998). All patients gave written informed consent and the study was approved by the local ethics committee. Immediately after isolation, cells were used for mRNA analysis, stained by FACS or cultured at 1×10^5 cells/well in 96-well tissue culture plates (Falcon, UK) in RPMI 1640 containing 10% (v/v) FBS and 100 U/ml penicillin/streptomycin. Primary human synovial fibroblasts were cultured as described previously (Butler et al. Eur. Cytokine Netw. 5:441-8, 1994). Peripheral blood monocytes were isolated and cultured as previously described (Foxwell et al. Proc. Natl. Acad. Sci. USA 95, 8211-8215, 1998). Macrophages were derived from monocytes after differentiation for 4 days with 100 ng/ml M-CSF (PeproTech, UK). The mouse macrophage cell line RAW 264.7 was maintained in Dulbecco's modified Eagle's medium supplemented with 10% fetal bovine serum.
Rheumatoid arthritis synovial membrane cells were cultured for 24 hours in the presence of media alone or media containing 30 μg/ml mianserine hydrochloride. Supernatants were harvested and levels of cytokines (A) TNF (n=16) were measured by ELISA. […] A students paired t-test was used to analyse the data.

[2] = test system: CIA model of rheumatoid arthritis; test: Murine CIA model of rheumatoid arthritis; assay type: in vivo, Male DBA mice
Procedure: Male DBA mice (8-10 weeks of age) were immunized at the base of the tail intradermally with 200 μg type II collagen emulsified in CFA (Difco Laboratories, West Molesey, U.K.). The onset of arthritis was considered to be the day that erythema and/or swelling were first observed, and arthritic mice were given a daily clinical score per limb from 0 to 3, with 0=normal, 1=slight erythema and swelling, 2=pronounced edematous swelling and 3=joint deformity with ankylosis, resulting in a maximum score of 12 per animal. Mianserine treatment started on the day of onset and was administered daily for 7 days. Paw swelling was assessed by measuring hind paw thickness using calipers.
The experiment was started at the onset of arthritis (day 1). Mice were given an interperitoneal injection of vehicle (PBS), 4 mg/kg or 10 mg/kg of mianserine hydrochloride once a day for 7 days. Mice were assessed for (FIG. 2A) clinical score and (FIG. 2B) paw swelling on a daily basis.

[3] = test system: TLR4 ligand LPS induced TNF; test: LPS induced TNF production in primary human macrophages (ELISA); assay type: cell-based; conditions: 30 μg/ml, 30 minutes preincubation, 10 ng/ml LPS for 6 hours; hydrochloride
Procedure: (§3) Macrophages or RA synovial membrane cell cultures were stimulated with 10 ng/ml chloroform-extracted LPS, 10 ng/ml Pam3, 10 ng/ml Flagellin, 10 ng/ml Malp-2, 20 μg/ml poly IC, 2 μM CpG (human/mouse) or 1 μg/ml R-848 in complete media for 6 h. Supernatants from RA cultures were harvested after 24 hours. All reagents other than LPS were free from LPS contamination as assessed using the limulus amebocyte lysate (LAL) assay from Cambrex (USA).
as §1, §2
Primary human macrophages, murine RAW 264.7 cells and synovial fibroblasts were incubated with 30 μg/ml mianserine hydrochloride for 30 minutes and then stimulated for 6 hours with TLR ligands (R-848, Pam3, LPS, flagellin, malp-2, poly IC or CpG).

[4] = test system: TLR ligands Pam3, flagellin, Malp-2 induced TNF; test: Pam3, flagellin or Malp-2 induced TNF production in primary human macrophages (ELISA); assay type: cell-based; conditions: 30 μg/ml, 30 minutes preincubation
Procedure: as §3, §1
(§4) RA synovial membrane cells were isolated from patients undergoing joint replacement surgery as previously described (Foxwell et al., Proc. Natl. Acad. Sci. USA 95, 8211-8215, 1998). All patients gave written informed consent and the study was approved by the local ethics committee. Immediately after isolation, cells were used for mRNA analysis, stained by FACS or cultured at 1×10^5 cells/well in 96-well tissue culture plates (Falcon, UK) in RPMI 1640 containing 10% (v/v) FBS and 100 U/ml penicillin/streptomycin. […]

[5] = test system: TLR3 ligand poly IC induced IP-10; test: Poly IC induced IP-10 production in human macrophages (ELISA); assay type: cell-based; conditions: 30 μg/ml, 20 μg/ml poly IC for 6 hours; hydrochloride
Procedure: as §3, §1, §2
Primary human macrophages were incubated with 5 μg/ml of GBR12909, 5 μg/ml of clotrimazole, 5 μg/ml of Propidium iodide (PI), 30 μg/ml mianserine hydrochloride and 30 μg/ml promazine hydrochloride for 30 minutes and then stimulated for 6 hours with the TLR4 ligand LPS (FIG. 7A), with R848 a TLR7/8 ligand (FIG. 7, Graph B), or with poly IC a TLR3 ligand (FIG. 7C). Supernatants were collected and measured for TNF or IP-10.

[6] = test system: TLR9 ligand CpG induced TNF; test: CpG induced TNF production in murine RAW 264.7 macrophages (ELISA); assay type: cell-based; conditions: 30 μg/ml, 30 minutes preincubation, CpG for 6 hours, RAW 264.7, n=2
Procedure: as §3, §1, §4

[7] = test system: TLR3 induced NF-κB activation; test: NF-κB luciferase reporter assay in synovial fibroblasts stimulated with poly IC; assay type: cell-based, human; conditions: 30 μg/ml, 30 minutes preincubation, 20 μg/ml Poly IC for 6 h, n=3
Procedure: (§5) Synovial fibroblasts were cultured in a 96-well plate, infected with recombinant adenovirus containing a NF-κB Luciferase reporter gene at a MOI of 200:1. The cells were allowed to rest for 24 h prior to stimulation. Cells were preincubated with 30 μg/ml mianserine hydrochloride for 30 minutes, then stimulated with 10 ng/ml LPS or 20 μg/ml Poly IC for 6 h. The cells were then washed once in PBS and lysed with 100 μl of CAT lysis buffer (0.65% (v/v) of Nonidet P-40, 10 mM Tris-HCl pH 8, 0.1 mM EDTA pH 8, 150 mM NaCl). 50 μl of cell lysate were mixed with 120 μl luciferase assay buffer (25 mM Tris-phosphate pH 7.8, 8 mM MgCl2, 1 mM EDTA, 1% (v/v) Triton X-100, 1% (v/v) glycerol, 1 mM DTT, 0.5 mM ATP) in the well of a luminometer cuvette strip. Luciferase activity was measured with a Luminometer (Thermo Labsystems, U.K.) by adding […] of luciferin (Bright-Glo luciferase assay system; Promega, Madison, Wis.) per assay point.
(§6) RA synovial membrane cells were isolated from patients undergoing joint replacement surgery as previously described (Foxwell et al., Proc. Natl. Acad. Sci. USA 95, 8211-8215, 1998). All patients gave written informed consent and the study was approved by the local ethics committee. […]

[8] = test system: LPS induced NF-κB activation (TLR4); test: NF-κB luciferase reporter assay in synovial fibroblasts stimulated with LPS; assay type: cell-based, human; conditions: 30 μg/ml, 30 minutes preincubation, 10 ng/ml LPS for 6 h, n=3
Procedure: as §5, §6

[9] = test system: RA synovial membrane cultures; test: Spontaneous cytokine release from RA synovial membrane cultures (ELISA); assay type: cell-based, human; conditions: 24 hours
[10] = test system: TLR7/8 ligand R-848 induced TNF; test: R-848 induced TNF production in primary human macrophages (ELISA)
[11] = 4 mg/kg interperitoneal once a day for 7 days
[12] = 10 mg/kg interperitoneal once a day for 7 days

In the case of `CN1CCN2c3ccccc3Cc3ccccc3C2C1` (stereo not shown) [mianserine hydrochloride], the “inhibition of TNF, dose dependence” value ([1]; 10 μg/ml, 20 μg/ml and 30 μg/ml) is reported as “dose dependently inhibited”, the “inhibition of spontaneous TNF production” value ([1]; 30 μg/ml, 24 hours) is reported as “able to inhibit” and the “decrease in the levels of TNF” value ([1]; 30 μg/ml, 24 hours, n=16, p=0.0007) is reported as 59%±13. The clinical score [2, 11] was “did not produce as great an effect as the 10 mg/kg group”, the hind paw swelling [2, 11] was “no significant improvement” and the histology scoring [2, 11] was “an improvement in the score”. For the same molecule, the hind paw swelling [2, 12] was “significant improvement throughout the study”, the histology scoring [2, 12] was “significant effect” and the “histology of hind paws: bone destruction and cell infiltration” value ([2]; interperitoneal once a day for 7 days) was “clear reduction in both bone destruction and cell infiltration into the joint”. For the same molecule, the clinical score ([2]; interperitoneal once a day for 7 days from onset, statistics for 10 mg/kg group versus vehicle, n=7) was “significant improvement to the control group from day 3 onwards”, the “inhibition of LPS induced TNF production” value [3] was “not and None of the drugs tested were able to inhibit” and the “decreased production of TNF in response to Malp-2” value ([4]; Malp-2 for 6 hours) was “not”. The “decreased production of TNF in response to flagellin” value ([4]; flagellin for 6 hours) was “not”, the “inhibition of Poly IC induced IP-10 production” value [5] was “inhibits TLR3 induced signalling; also recorded: able to inhibit” and the “inhibition of CpG induced TNF production” value [6] was “able to inhibit TNF production”. For the same molecule, the “inhibition of TLR3 induced NF-κB activation” value [7] was “significantly inhibit”, the “effect on LPS induced NF-κB activation” value [8] was “no effect” and the “inhibition of spontaneous TNF production” value ([9]; 20 μg/ml) was “able to inhibit”. The “decrease of TNF levels (positive control)” value [9] was “able to decrease the TNF levels”, the “inhibitory effect on TNF production at rising R-848” value ([10]; 5 μg/ml with 0.3, 1, 10 or 20 μg/ml R-848, 6 hours) was “diminished with increasing concentrations of R-848” and the “inhibition of R-848 induced TNF production” value ([10]; 30 μg/ml, 30 minutes preincubation, 1 μg/ml R-848 for 6 hours, hydrochloride) was “decreased production of TNF; also recorded: able to suppress”. The “mode of inhibition of R-848 induced TNF production” value ([10]; 2.5, 5 or 10 μg/ml with 0.3, 1, 10 or 20 μg/ml R-848, 6 hours, three donors) was “competitively inhibits”.
